Reference: patent publication US6984718B2, “Fluorescence dyes and their applications for whole-cell fluorescence screening assays for caspases, peptidases, proteases and other enzymes and the use thereof” (Cytovia, Inc., priority 1998, dated 2006)
Values belong to the molecule of their own block, whether it stands above or below them.

Experiments:
[1] = system: Jurkat T leukemia cells; test: Whole cell assay: cleavage of caspase-3 substrate in apoptotic Jurkat cells, flow cytometry; assay type: cell-based, human
Experimental: Jurkat T leukemia cells were grown in RPMI 1640 media (Life Technologies, Inc.) +10% FCS (Sigma Chemical Company) in a 5% CO2-95% humidity incubator at 37° C., and maintained at a cell density between 4 and 8×10^5 cells/ml. Cells were harvested at 200×g and resuspended at 1×10^6 cells/ml into RPMI 1640 media containing 10% FCS and 1 ml each were dispensed in 2-wells of a 6-well plate. The apoptosis inducer staurosporine was added at 0.5 μg/ml concentration and the plate was incubated for 2 hrs at 37° C. in a 5% CO2-95% humidity incubator. Cells were pelleted and incubated with 50 μM of substrate Ac-DEVD-R110-TFB (SEQ ID NO:5) for 2 hrs at 37° C. in serum-free RPMI medium. 500 μl PBS was added and samples were analyzed by flow cytometry. All flow cytometry analyses were performed on a FACScalibur (Becton Dickinson) using CellQuest analysis software.
The apoptosis inducer anti-Fas antibody (CH-11; MBL) was added at 200 ng/ml concentration and the plate was incubated for 2hrs at 37° C. in a 5% CO2-95% humidity incubator. Cells were pelleted and incubated with 50 μM of substrate Ac-DEVD-R110-TFB (SEQ ID NO:5) for 2 hrs at 37° C. in serum-free RPMI medium. 500 μl PBS was added and samples were analyzed by flow cytometry.
A pan-caspase inhibitor cbz-Val-Asp-fink(see W099/18781) was added to one of the wells. The apoptosis inducer staurosporine was added with and without the caspase inhibitor at 0.5 μg/ml concentration and the plate was incubated for 2 hrs at 37° C. in a 5% CO2-95% humidity incubator. Cells were pelleted and incubated with 50 μM of substrate Ac-DEVD-R110-TFB (SEQ ID NO:5) for 2hr at 37° C. in serum-free RPMI medium. 500 μl PBS was added and samples were analyzed by flow cytometry.

[2] = system: HL-60 cells; test: Staining of whole, live HL-60 cells with aminopeptidase substrate; assay type: cell-based; conditions: 10 μM, 2 hours at 37° C.
Experimental: HL-60 cells (about 2×10^6) were incubated with 10 μM of N-Gly-R110-PFB for 2 hours at 37° C. in a CO2 incubator. Parallel samples were similarly incubated with the amino terminal-blocked compound, N-Cbz-Gly-R110. At the end of the incubation, the cells were harvested by centrifugation and resuspended in 50 μL of fresh medium without substrate. Aliquots of each cell suspension were placed in microslides and viewed on a Nikon inverted microscope with epifluorescent illumination.

[3] = system: aminopeptidases; test: Cleavage of substrate by HL-60 cell lysate (aminopeptidases); assay type: biochemical; conditions: 37° C.; for fluorescent signal after incubation with cell lysate: HL-60 cell lysate
Experimental: N-Gly-R110-PFB was incubated with a lysate made from HL-60 cells, and the amount of fluorescence was measured at various times after incubation at 37° C. Parallel samples were run using the control substrate, N-Cbz-Gly-R110-PFB.

[4] = Fluorescence standard curve of dye under cell-free conditions (fluorescent microplate reader); assay type: physicochemical
Experimental: A standard curve consisting of 7 concentrations of N-pentafluorobenzoyl-Rhodamine 110 (0.5 to 20 μM) in a volume of 100 μL was prepared. The fluorescence of each concentration was measured (in triplicate) using a BioTek fluorescent microplate reader, and the signal was plotted as a function of dye concentration. The N-pentafluorobenzoyl-Rhodamine 110 curve was compared to a standard curve of R110 fluorescence prepared in the same way.

[5] = system: HL-60 lysates; test: Cleavage of Z-DEVD-R110-PFB by HL-60 lysates; assay type: biochemical
[6] = target: T1, recombinant caspase-3 (Homo sapiens, UniProt P42574); test: Cleavage of fluorogenic substrate by recombinant caspase-3, cell-free; assay type: biochemical
T1 sequence (P42574 29-175 limits assumed): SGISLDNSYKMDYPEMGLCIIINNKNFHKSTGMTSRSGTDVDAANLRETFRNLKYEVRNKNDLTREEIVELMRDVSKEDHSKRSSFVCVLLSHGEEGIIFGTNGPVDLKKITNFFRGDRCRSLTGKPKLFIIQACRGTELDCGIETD
T1 sequence (P42574 176-277 limits assumed): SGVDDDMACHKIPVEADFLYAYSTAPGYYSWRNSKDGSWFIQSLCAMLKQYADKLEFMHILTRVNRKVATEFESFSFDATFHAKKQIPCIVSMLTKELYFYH
Experimental: The cleavage of N-(Ac-DEVD)-N′-(2,3,4,5-tetrafluorobenzoyl)-R110 (SEQ ID NO:5) (Ac-DEVD-R110-TFB) (SEQ ID NO:5) by caspase-3 was tested in a cell-free assay using recombinant enzyme. 10 μM of substrate was incubated with recombinant caspase-3 for 3 hours at 37° C. Control reactions included one sample with no enzyme (Background value) and one sample incubated in the presence of the caspase inhibitor, Ac-DEVD-CHO (SEQ ID NO:5) (Non-specific value).

Structure (SMILES): CN[C@@H]1C[C@H]2O[C@@](C)([C@@H]1OC)n1c3ccccc3c3c4c(c5c6ccccc6n2c5c31)C(=O)NC4 [staurosporine]
induction of apoptosis read out as cleavage of Ac-DEVD-R110-TFB ([1]; inducer at 0.5 μg/ml, 2 hrs): leads to cleavage of the caspase-3 substrate

Structure (SMILES): O=C(CNC(=O)OCc1ccccc1)Nc1ccc2c(c1)Oc1cc(NC(=O)c3c(F)c(F)c(F)c(F)c3F)ccc1C21OC(=O)c2ccccc21 (stereo not drawn) [N-Cbz-Gly-R110-PFB, N-(Z-Gly)-N′-pentafluorobenzoyl-Rhodamine 110]
fluorescence of whole cells incubated with substrate [2]: did not fluoresce above background levels
fluorescent signal after incubation with cell lysate [3]: did not give a signal
fluorescent signal after incubation with buffer only (no lysate) [3]: did not give a signal

Structure (SMILES): Nc1ccc2c(c1)Oc1cc(NC(=O)c3c(F)c(F)c(F)c(F)c3F)ccc1C21OC(=O)c2ccccc21 (stereo not drawn) [N-pentafluorobenzoyl-Rhodamine 110, N-Pentafluorobenzoyl-Rhodamine 110]
fluorescence compared to Rhodamine 110 ([4]; cell-free conditions): weaker fluorescent dye compared to Rhodamine 110

Structure (SMILES): Br.NCC(=O)Nc1ccc2c(c1)Oc1cc(NC(=O)c3c(F)c(F)c(F)c(F)c3F)ccc1C21OC(=O)c2ccccc21 (stereo not drawn) [N-Gly-R110-PFB, N-Gly-N′-pentafluorobenzoyl-Rhodamine 110 HBr]
fluorescence of whole cells incubated with substrate [2]: strong, homogeneously distributed, yellowish-green fluorescence
fluorescent signal after incubation with cell lysate [3]: strong fluorescent signal
fluorescent signal after incubation with buffer only (no lysate) [3]: very weak fluorescent signal

increase in fluorescence over the uncleaved substrate ([6]; recombinant caspase-3): greater than 10 fold
Structure (SMILES): CC(C)[C@H](NC(=O)[C@H](CCC(=O)O)NC(=O)[C@H](CC(=O)O)NC(=O)OCc1ccccc1)C(=O)N[C@@H](CC(=O)O)C(=O)Nc1ccc2c(c1)Oc1cc(NC(=O)c3c(F)c(F)c(F)c(F)c3F)ccc1C21OC(=O)c2ccccc21 (stereo partly drawn) [Z-DEVD-R110-PFB, N-(Z-Asp-Glu-Val-Asp)-N′-pentafluorobenzoyl-Rhodamine 110]
cleavage by lysate from apoptotic HL-60 cells [5]: readily cleaved

higher fluorescence of R110 than N-pentafluorobenzoyl-Rhodamine 110 ([4]; each concentration tested, 0.5 to 20 μM, cell-free): 20 to 50 fold
Structure (SMILES): Cl.N=c1ccc2c(-c3ccccc3C(=O)O)c3ccc(N)cc3oc-2c1 [Rhodamine 110, reference compound]

Structure (SMILES): CC(C)[C@H](NC(=O)OCc1ccccc1)C(=O)NC(CC(=O)O)C(=O)CF (stereo partly drawn) [cbz-Val-Asp-fink]
inhibition of staurosporine induced cleavage of Ac-DEVD-R110-TFB in whole cells ([1]; staurosporine 0.5 μg/ml, 2 hrs): can be inhibited by the pan-caspase inhibitor

increase in fluorescence over background and non-specific values ([6]; 10 μM substrate, recombinant caspase-3, 3 hours at 37° C.): roughly 50 fold
Structure (SMILES): CC(=O)N[C@@H](CC(=O)O)C(=O)N[C@@H](CCC(=O)O)C(=O)N[C@H](C(=O)N[C@@H](CC(=O)O)C(=O)Nc1ccc2c(c1)Oc1cc(NC(=O)c3cc(F)c(F)c(F)c3F)ccc1C21OC(=O)c2ccccc21)C(C)C (stereo partly drawn) [Ac-DEVD-R110-TFB, N-(Ac-Asp-Glu-Val-Asp)-N′-(2,3,4,5-tetrafluorobenzoyl)-Rhodamine 110]
cleavage of substrate under whole cell assay conditions, anti-Fas antibody induced apoptosis ([1]; anti-Fas antibody 200 ng/ml 2 hrs, then 50 μM substrate 2 hrs at 37° C.): cleavage
cleavage of substrate under whole cell assay conditions, staurosporine induced apoptosis ([1]; staurosporine 0.5 μg/ml 2 hrs, then 50 μM substrate 2 hrs at 37° C.): cleavage
